pIC50: −log10 of the molar value.
How the values were obtained:
[1] = tested on: MDA-MB-468; test: Growth inhibition of human MDA-MB-468 cells assessed as cell growth at 1 uM incubated for 48 hrs by sulforhodamine B assay relative to control; assay type: functional; conditions: MDA-MB-468, 48 h, read-out: Activity
[2] = tested on: MDA-MB-435; test: Growth inhibition of human MDA-MB-435 cells incubated for 48 hrs by sulforhodamine B assay; assay type: functional, cell-based; conditions: MDA-MB-435, 48 h
[3] = tested on: NCI/ADR-RES; test: Growth inhibition of human NCI/ADR-RES cells assessed as cell growth at 0.01 uM incubated for 48 hrs by sulforhodamine B assay relative to control; assay type: functional; conditions: read-out: Activity
[4] = tested on: OVCAR-3; test: Growth inhibition of human OVCAR3 cells assessed as cell growth at 100 uM incubated for 48 hrs by sulforhodamine B assay relative to control; assay type: functional; conditions: OVCAR-3, 48 h, read-out: Activity
[5] = tested on: K562; test: Growth inhibition of human K562 cells assessed as cell growth at 0.01 uM incubated for 48 hrs by sulforhodamine B assay relative to control; assay type: functional; conditions: K562, 48 h, read-out: Activity
[6] = tested on: RPMI-8226; test: Growth inhibition of human RPMI8226 cells assessed as cell growth at 0.01 uM incubated for 48 hrs by sulforhodamine B assay relative to control; assay type: functional; conditions: RPMI-8226, 48 h, read-out: Activity
[7] = tested on: RXF 393; test: Growth inhibition of human RXF393 cells assessed as cell growth at 1 uM incubated for 48 hrs by sulforhodamine B assay relative to control; assay type: functional; conditions: RXF 393, 48 h, read-out: Activity
[8] = tested on: OVCAR-5; test: Growth inhibition of human OVCAR5 cells assessed as cell growth at 0.01 uM incubated for 48 hrs by sulforhodamine B assay relative to control; assay type: functional; conditions: OVCAR-5, 48 h, read-out: Activity
[9] = tested on: CCRF-CEM; test: Growth inhibition of human CCRF-CEM cells assessed as cell growth at 100 uM incubated for 48 hrs by sulforhodamine B assay relative to control; assay type: functional; conditions: read-out: Activity
[10] = tested on: SK-OV-3; test: Growth inhibition of human SKOV3 cells assessed as cell growth at 1 uM incubated for 48 hrs by sulforhodamine B assay relative to control; assay type: functional; conditions: SK-OV-3, 48 h, read-out: Activity
[11] = tested on: UACC-257; test: Growth inhibition of human UACC257 cells incubated for 48 hrs by sulforhodamine B assay; assay type: functional, cell-based; conditions: UACC-257, 48 h
[12] = tested on: IGROV-1; test: Growth inhibition of human IGROV1 cells assessed as cell growth at 100 uM incubated for 48 hrs by sulforhodamine B assay relative to control; assay type: functional; conditions: IGROV-1, 48 h, read-out: Activity
[13] = tested on: HT-29; test: Growth inhibition of human HT-29 cells assessed as cell growth at 0.01 uM incubated for 48 hrs by sulforhodamine B assay relative to control; assay type: functional; conditions: HT-29, 48 h, read-out: Activity
[14] = tested on: BT-549; test: Growth inhibition of human BT549 cells assessed as cell growth at 100 uM incubated for 48 hrs by sulforhodamine B assay relative to control; assay type: functional; conditions: BT-549, 48 h, read-out: Activity
[15] = tested on: T47D; test: Growth inhibition of human T47D cells incubated for 48 hrs by sulforhodamine B assay; assay type: functional, cell-based
[16] = tested on: 786-0; test: Growth inhibition of human 786-0 cells assessed as cell growth at 1 uM incubated for 48 hrs by sulforhodamine B assay relative to control; assay type: functional; conditions: 786-0, 48 h, read-out: Activity
[17] = tested on: UACC-62; test: Growth inhibition of human UACC62 cells assessed as cell growth at 1 uM incubated for 48 hrs by sulforhodamine B assay relative to control; assay type: functional; conditions: UACC-62, 48 h, read-out: Activity
[18] = tested on: KM12; test: Growth inhibition of human KM12 cells assessed as cell growth at 0.01 uM incubated for 48 hrs by sulforhodamine B assay relative to control; assay type: functional; conditions: KM12, 48 h, read-out: Activity
[19] = tested on: COLO 205; test: Growth inhibition of human COLO205 cells assessed as cell growth at 1 uM incubated for 48 hrs by sulforhodamine B assay relative to control; assay type: functional; conditions: COLO 205, 48 h, read-out: Activity
[20] = tested on: NCI-H522; test: Growth inhibition of human NCI-H522 cells assessed as cell growth at 10 uM incubated for 48 hrs by sulforhodamine B assay relative to control; assay type: functional; conditions: NCI-H522, 48 h, read-out: Activity
[21] = tested on: HCT-116; test: Growth inhibition of human HCT116 cells incubated for 48 hrs by sulforhodamine B assay; assay type: functional, cell-based; conditions: HCT-116, 48 h
[22] = tested on: RPMI-8226; test: Growth inhibition of human RPMI8226 cells assessed as cell growth at 0.1 uM incubated for 48 hrs by sulforhodamine B assay relative to control; assay type: functional; conditions: RPMI-8226, 48 h, read-out: Activity
[23] = tested on: U-251; test: Growth inhibition of human U251 cells assessed as cell growth at 100 uM incubated for 48 hrs by sulforhodamine B assay relative to control; assay type: functional; conditions: U-251, 48 h, read-out: Activity
[24] = tested on: U-251; test: Growth inhibition of human U251 cells incubated for 48 hrs by sulforhodamine B assay; assay type: functional, cell-based; conditions: U-251, 48 h
[25] = tested on: LOX IMVI; test: Growth inhibition of human LOXIMVI cells assessed as cell growth at 1 uM incubated for 48 hrs by sulforhodamine B assay relative to control; assay type: functional; conditions: read-out: Activity
[26] = tested on: HCC 2998; test: Growth inhibition of human HCC2998 cells assessed as cell growth at 100 uM incubated for 48 hrs by sulforhodamine B assay relative to control; assay type: functional; conditions: HCC 2998, 48 h, read-out: Activity
[27] = tested on: OVCAR-3; test: Growth inhibition of human OVCAR3 cells assessed as cell growth at 0.1 uM incubated for 48 hrs by sulforhodamine B assay relative to control; assay type: functional; conditions: OVCAR-3, 48 h, read-out: Activity
[28] = tested on: NCI-H226; test: Growth inhibition of human NCI-H226 cells assessed as cell growth at 100 uM incubated for 48 hrs by sulforhodamine B assay relative to control; assay type: functional; conditions: NCI-H226, 48 h, read-out: Activity
[29] = tested on: Hs-578T; test: Growth inhibition of human Hs578T cells assessed as cell growth at 1 uM incubated for 48 hrs by sulforhodamine B assay relative to control; assay type: functional; conditions: read-out: Activity
[30] = tested on: HT-29; test: Growth inhibition of human HT-29 cells assessed as cell growth at 0.1 uM incubated for 48 hrs by sulforhodamine B assay relative to control; assay type: functional; conditions: HT-29, 48 h, read-out: Activity
[31] = read-out: LC50 (the source's name)
[32] = read-out: pLC50 (the source's name) (converted)

COc1cc(Cl)cc(-c2nn(-c3cccc(NC(=O)c4ccc(N5CCOCC5)c(C(F)(F)F)c4)c3)cc2-c2ccncc2)c1
growth at 1 µM [1]: 56%
GI50 ([2]; read-out: GI50): 4.38 µM
LC50 ([2]; read-out: LC50): > 100 µM
TGI ([2]; read-out: TGI): > 100 µM
GI50 ([2]; read-out: pGI50 (converted)): 43.7 µM
LC50 ([2]; read-out: pLC50 (converted)): > 100 µM
TGI ([2]; read-out: pTGI (converted)): > 100 µM
growth at 0.01 µM [3]: 96%
growth at 100 µM [4]: 44%
growth at 0.01 µM [5]: 100%
growth at 0.01 µM [6]: 99%
growth at 1 µM [7]: 45%
growth at 0.01 µM [8]: 94%
growth at 100 µM [9]: 18%
growth at 1 µM [10]: 103%
GI50 ([11]; read-out: GI50): 2.17 µM
CC50 [11, 31]: > 100 µM
TGI ([11]; read-out: TGI): 69.1 µM
GI50 ([11]; read-out: pGI50 (converted)): 21.9 µM
CC50 [11, 32]: > 100 µM
TGI ([11]; read-out: pTGI (converted)): 69.2 µM
growth at 100 µM [12]: 54%
growth at 0.01 µM [13]: 100%
growth at 100 µM [14]: 49%
GI50 ([15]; read-out: GI50): 1.04 µM
CC50 [15, 31]: > 100 µM
TGI ([15]; read-out: TGI): > 100 µM
GI50 ([15]; read-out: pGI50 (converted)): 10.5 µM
CC50 [15, 32]: > 100 µM
TGI ([15]; read-out: pTGI (converted)): > 100 µM
growth at 1 µM [16]: 74%
growth at 1 µM [17]: 84%
growth at 0.01 µM [18]: 96%
growth at 1 µM [19]: 104%
growth at 10 µM [20]: 52.7%
pIC50 [21]: 5.02
GI50 ([21]; read-out: GI50): 9.54 µM
CC50 [21, 31]: > 100 µM
TGI ([21]; read-out: TGI): > 100 µM
GI50 ([21]; read-out: pGI50 (converted)): 9.55 µM
CC50 [21, 32]: > 100 µM
TGI ([21]; read-out: pTGI (converted)): > 100 µM
growth at 0.1 µM [22]: 107%
growth at 100 µM [23]: 3%
pIC50 [24]: 5.30
GI50 ([24]; read-out: GI50): 5.03 µM
CC50 [24, 31]: > 100 µM
TGI ([24]; read-out: TGI): > 100 µM
GI50 ([24]; read-out: pGI50 (converted)): 5.01 µM
CC50 [24, 32]: > 100 µM
TGI ([24]; read-out: pTGI (converted)): > 100 µM
growth at 1 µM [25]: 95%
growth at 100 µM [26]: -5%
growth at 0.1 µM [27]: 107%
growth at 100 µM [28]: 50%
growth at 1 µM [29]: 81%
growth at 0.1 µM [30]: 93%

COc1cc(Cl)cc(-c2nn(-c3cccc(NC(=O)Nc4ccc(Cl)c(C(F)(F)F)c4)c3)cc2-c2ccncc2)c1
growth at 1 µM [1]: 50%
GI50 ([2]; read-out: GI50): 1.75 µM
LC50 ([2]; read-out: LC50): > 100 µM
TGI ([2]; read-out: TGI): 43.5 µM
GI50 ([2]; read-out: pGI50 (converted)): 1.74 µM
LC50 ([2]; read-out: pLC50 (converted)): > 100 µM
TGI ([2]; read-out: pTGI (converted)): 3.47 µM
growth at 0.01 µM [3]: 98%
growth at 100 µM [4]: -56%
growth at 0.01 µM [5]: 94%
growth at 0.01 µM [6]: 97%
growth at 1 µM [7]: 78%
growth at 0.01 µM [8]: 54%
growth at 100 µM [9]: -29%
growth at 1 µM [10]: 100%
GI50 ([11]; read-out: GI50): 1.59 µM
CC50 [11, 31]: 1.55 µM
TGI ([11]; read-out: TGI): 49.3 µM
GI50 ([11]; read-out: pGI50 (converted)): 1.91 µM
CC50 [11, 32]: 18.6 µM
TGI ([11]; read-out: pTGI (converted)): 2.95 µM
growth at 100 µM [12]: -16%
growth at 0.01 µM [13]: 101%
growth at 100 µM [14]: -68%
GI50 ([15]; read-out: GI50): 1.25 µM
CC50 [15, 31]: > 100 µM
TGI ([15]; read-out: TGI): 80.2 µM
GI50 ([15]; read-out: pGI50 (converted)): 1.26 µM
CC50 [15, 32]: > 100 µM
TGI ([15]; read-out: pTGI (converted)): 7.94 µM
growth at 1 µM [16]: 74%
growth at 1 µM [17]: 82%
growth at 0.01 µM [18]: 95%
growth at 1 µM [19]: 80%
growth at 10 µM [20]: -10.4%
pIC50 [21]: 6.20
GI50 ([21]; read-out: GI50): 0.631 µM
CC50 [21, 31]: 7.3 µM
TGI ([21]; read-out: TGI): 23.6 µM
GI50 ([21]; read-out: pGI50 (converted)): 0.631 µM
CC50 [21, 32]: 7.24 µM
TGI ([21]; read-out: pTGI (converted)): 2.34 µM
growth at 0.1 µM [22]: 100%
growth at 100 µM [23]: -100%
pIC50 [24]: 6.14
GI50 ([24]; read-out: GI50): 0.729 µM
CC50 [24, 31]: 5 µM
TGI ([24]; read-out: TGI): 21.1 µM
GI50 ([24]; read-out: pGI50 (converted)): 0.724 µM
CC50 [24, 32]: 5.01 µM
TGI ([24]; read-out: pTGI (converted)): 2.09 µM
growth at 1 µM [25]: 61%
growth at 100 µM [26]: -75%
growth at 0.1 µM [27]: 99%
growth at 100 µM [28]: -29%
growth at 1 µM [29]: 89%
growth at 0.1 µM [30]: 94%

— ChEMBL document CHEMBL4308841, “Synthesis, in vitro antiproliferative activity, and kinase inhibitory effects of pyrazole-containing diarylureas and diarylamides” (Eur J Med Chem, 2018)
